Test results reported in patent US12366576B2, “Compositions, assays, and methods for direct modulation of fatty acid metabolism” (Dana-Farber Cancer Institute, Inc., priority 2016, dated 2025).
Bridge positions count the residues as written; N and C are the ends. Square brackets hold non-standard residues; d marks the D form. Ends that are not written are not given here. Peptide text beside a SMILES is read from it. S5 = C=CCCC[C@](C)(N)C(=O)O

How the values were obtained:
endogenous MCL-1 = assay: Biotinylated SAHB pulldown from MEF lysates, anti-MCL-1 Western analysis; assay type: binding, mouse; settings: for summary of binding properties: binding to MCL-1: pull-downs; for effect of alanine mutation on biotinylated MCL-1 SAHBD interaction with MCL-1: pull-downs from MEF lysates
Experimental: An exploratory proteomics analysis was conducted to identify proteins that interact with the MCL-1 BH3 domain helix. An extensive library of MCL-1 stapled BH3 peptides (FIG. 2) was generated to both identify novel protein interactors by mass spectrometry and then deploy the stapled peptide constructs as novel probes to dissect and pharmacologically modulate the identified protein interactors and associated signaling pathways. As an example, an N-terminally biotinylated stapled peptide designed based on the sequence of MCL-1's BH3 domain (Btn-MCL-1 SAHBD), or vehicle, was incubated with wild-type mouse embryonic fibroblast (MEF) lysates, followed by high stringency streptavidin capture. To validate the proteomics workflow and ensure that Btn-MCL-1 SAHBD could, in fact, engage protein interactors in a lysate, eluates were first run on a gel for anti-MCL-1 Western analysis. […] For mass spectrometry (MS) analysis, eluates were run on a reducing/denaturing gel followed by Coomassie staining (FIG. 4) and in-gel digestion was performed before injection on the instrument.
The binding determinants for the MCL-1 BH3/VLCAD interaction were investigated by generating a series of biotinylated MCL-1 SAHBD alanine point mutants (FIG. 18A) and performing streptavidin pull-downs from MEF lysates, followed by VLCAD and MCL-1 western analysis of the resulting eluates. […] Native alanines and residues not mutated are colored white.
Wild-type MEFs were trypsinized, washed once with cold PBS, and lysed on ice with NP-40 lysis buffer (50 mM Tris, pH 7.4, 150 mM NaCl, 0.5% (v/v) NP-40, complete protease inhibitor pellet (Roche)) using 1 ml of lysis buffer for every 10 million cells lysed. Cellular debris was pelleted at 14,000 g for 10 min at 4° C., and the supernatant was quantified using the BCA Protein Assay Kit (Thermo Fisher Scientific). 2 mg of lysate per pulldown were then exposed to 50 μL of pre-equilibrated High Capacity Streptavidin Agarose beads (Thermo Fisher Scientific). […] The beads were then pelleted and washed with NP-40 lysis buffer three times before eluting the protein sample from the beads by heating at 70° C. for 10 min in SDS loading buffer. Samples were then subjected to electrophoresis and either Western analysis or Coomassie stain (SimplyBlue Safe Stain, Thermo Fisher Scientific). […] Coomassie stained gels were then processed for proteomics analysis (see below). Biotinylated SAHB pulldowns of recombinant protein were performed as above incubating 5 nmol of SAHB with 10 pmol of rVLCAD in 500 μL total volume. Densitometry analyses were performed using ImageJ software.

VLCAD = molecular target: T1, VLCAD (Homo sapiens, UniProt P49748); assay: Isothermal calorimetry (ITC); assay type: binding; settings: 80 μM recombinant VLCAD, injection of 100 μM peptide, 25° C.
T1 construct: 10x His (N); made in house; host or cells: E. coli BL21(DE3), pET19b
T1 sequence (P49748 40-655): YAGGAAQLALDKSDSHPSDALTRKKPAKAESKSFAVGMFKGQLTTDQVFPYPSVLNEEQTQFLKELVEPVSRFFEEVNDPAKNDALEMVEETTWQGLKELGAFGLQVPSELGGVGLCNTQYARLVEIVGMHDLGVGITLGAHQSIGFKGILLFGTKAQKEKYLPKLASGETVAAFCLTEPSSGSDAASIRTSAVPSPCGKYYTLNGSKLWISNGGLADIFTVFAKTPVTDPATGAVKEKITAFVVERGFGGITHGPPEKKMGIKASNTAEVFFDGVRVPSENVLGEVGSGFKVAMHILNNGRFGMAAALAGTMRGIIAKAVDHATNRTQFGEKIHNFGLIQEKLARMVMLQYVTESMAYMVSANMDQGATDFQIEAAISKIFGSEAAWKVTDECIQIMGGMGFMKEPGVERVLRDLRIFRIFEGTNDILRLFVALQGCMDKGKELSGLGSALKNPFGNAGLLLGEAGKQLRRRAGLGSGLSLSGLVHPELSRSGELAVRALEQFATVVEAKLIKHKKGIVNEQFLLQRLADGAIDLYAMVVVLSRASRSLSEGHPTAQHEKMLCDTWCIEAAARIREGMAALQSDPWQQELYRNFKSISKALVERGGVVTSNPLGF
Text: The alanine mutant peptide panel was then utilized in an isothermal calorimetry (ITC)-based enthalpy screen to assess the relative binding activities of the different peptides to recombinant VLCAD protein (FIG. 19A). Although some differences in binding hierarchy were observed between the pull down (native protein) and ITC (purified recombinant protein) methods, those peptides displaying the strongest and weakest binding activity for VLCAD were similar between the two analyses.
VLCAD. Mature human VLCAD lacking its cleavable leader sequence (aa 40-655) (NP_000009.1) was subcloned into the pET19b vector (Novagen) using NdeI and XhoI restriction sites. Correct insertion was confirmed by DNA sequencing. The 10× His-tagged VLCAD construct was expressed in BL21(DE3) E. coli, and once cells reached an OD of 0.8 after growing at 37° C., they were induced with 0.5 mM […] (IPTG) (Gold Biotechnology I2481C) at 37° C. for 4 hours. Bacterial pellets were resuspended in lysis buffer (500 mM NaCl, 50 mM HEPES, 5% glycerol, pH 7.5, complete protease inhibitor tablet) and lysed by microfluidization (M-110L; Microfluidics). Cell lysates were then cleared by centrifugation at 20,000 rpm for 45 min (Beckman Avanti J-E, rotor type JA-20). Cleared cellular lysates were then subjected to Ni-NTA (QIAGEN) affinity chromatography, followed by elution with 300 mM imidazole (Sigma 12399) and overnight dialysis at 4° C. Dialyzed VLCAD was then concentrated and subjected to size exclusion chromatography (GE Healthcare Life Sciences Superdex 200 10/300 GL) at 4° C. using 150 mM NaCl, 50 mM Tris, pH 8.0. Protein was used upon isolation and was stored at 4° C. for up to two weeks. Successful protein production was confirmed by SDS-PAGE, Western blot, intact MS, and enzymatic activity assay.
A peptide enthalpy screen was performed by adding 80 μM of recombinant VLCAD to the cell in analysis buffer (20 mM HEPES, pH 7.5, 150 mM NaCl, 1 mM TCEP, and 1% DMSO), followed by injection of 2.0 μL of 100 μM peptide by syringe, using an Affinity ITC (TA instruments) at 25° C. Injections were performed in technical triplicate for each peptide. […] Data were analyzed with the NanoAnalyze software package (TA instruments) using a single binding site model and thermodynamic parameters calculated as follows: ΔG=ΔH−TΔS=−RTlnKB, where ΔG, ΔH, and ΔS are the changes in free energy, enthalpy and entropy of binding, respectively.

relative binding activity for VLCAD (ITC enthalpy screen, consistent with pull down) (VLCAD)	relative binding activity for VLCAD (ITC enthalpy screen, consistent with pull down) (VLCAD; listed as MCL-1 SAHBD V220A)	Compound	summary of binding properties: binding to MCL-1 (endogenous MCL-1)	effect of alanine mutation on biotinylated MCL-1 SAHBD interaction with MCL-1 (endogenous MCL-1)
weak VLCAD association		F228A: biotinylated MCL-1 SAHBD alanine point mutant F228A (RKALETLRRVGDGV[S5]RNH[S5]TAA; staple 15-19; also: biotinylated, place not given here)	Does not bind	
		MCL-1 SAHBD: hydrocarbon-stapled peptide mimicking the MCL-1 BH3 domain (Stabilized Alpha-Helix of BCL-2 Domain), SEQ ID NO:19 (RKALETLRRVGDGV[S5]RNH[S5]TAF; staple 15-19)	Binds	
weak VLCAD association		L213A: biotinylated MCL-1 SAHBD alanine point mutant L213A (RKALETARRVGDGV[S5]RNH[S5]TAF; staple 15-19; also: biotinylated, place not given here)	Does not bind	disrupted
weak VLCAD association		R214A: biotinylated MCL-1 SAHBD alanine point mutant R214A (RKALETLARVGDGV[S5]RNH[S5]TAF; staple 15-19; also: biotinylated, place not given here)	Does not bind	
weak VLCAD association		R207A: biotinylated MCL-1 SAHBD alanine point mutant R207A (AKALETLRRVGDGV[S5]RNH[S5]TAF; staple 15-19; also: biotinylated, place not given here)	diminished binding	
robust binding	strongest binder	CC(=O)N[C@@H](CCCNC(=N)N)C(=O)N[C@@H](CCCCN)C(=O)N[C@@H](C)C(=O)N[C@@H](CC(C)C)C(=O)N[C@@H](CCC(=O)O)C(=O)N[C@H](C(=O)N[C@@H](CC(C)C)C(=O)N[C@@H](CCCNC(=N)N)C(=O)N[C@@H](CCCNC(=N)N)C(=O)N[C@H](C(=O)NCC(=O)N[C@@H](CC(=O)O)C(=O)NCC(=O)N[C@@H](C)C(=O)N[C@@]1(C)CCCC=CCCC[C@@](C)(C(=O)N[C@H](C(=O)N[C@@H](C)C(=O)N[C@@H](Cc2ccccc2)C(N)=O)[C@@H](C)O)NC(=O)[C@H](Cc2c[nH]cn2)NC(=O)[C@H](CC(N)=O)NC(=O)[C@H](CCCNC(=N)N)NC1=O)C(C)C)[C@@H](C)O [V220A] (Ac-RKALETLRRVGDGA[S5]RNH[S5]TAF-NH2; staple 15-19; N-terminus and C-terminus assumed)	weakly or not	uniquely disruptive
robust binding		D218A: biotinylated MCL-1 SAHBD alanine point mutant D218A (RKALETLRRVGAGV[S5]RNH[S5]TAF; staple 15-19; also: biotinylated, place not given here)	Binds	
weak VLCAD association		R215A: biotinylated MCL-1 SAHBD alanine point mutant R215A (RKALETLRAVGDGV[S5]RNH[S5]TAF; staple 15-19; also: biotinylated, place not given here)	Binds	
